According to patent US20250163057A1, “DCN-1 MODULATING COMPOUNDS AND METHODS OF USE THEREOF” (Cellarity, Inc., priority 2023, published 2025):

Experiments:
[1] = target: DCN1 protein (Homo sapiens (Human), UniProt Q96GG9); assay: Intact Protein MS Analysis with the RapidFire-TOF System (covalent adduct formation); type: binding; settings: MS Emax; 400 nM DCN1, 3 hours at room temperature
Summary of the method: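 Tag-cleaved human DCN1 (400 nM) expressed in E. coli, in 25 mM Tris-HCl, 200 mM NaCl, 1 mM DTT, was incubated with 11 compound concentrations for 3 h at room temperature and quenched with 0.2% formic acid. Intact-protein Q-TOF MS with deconvolution detected the compound adduct mass.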

[2] = system: Cullin-3 (CUL3) neddylation; assay: AlphaLISA assay for Cullin-3 (CUL3) neddylation in TF 1 cells; type: cell-based; settings: 3 hours treatment
Summary of the method: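 TF 1 cells in unsupplemented IMDM treated with compound concentrations for 3 h, then lysed. CUL3 neddylation detected by AlphaLISA (biotinylated anti-NEDD8, anti-CUL3 acceptor beads overnight, streptavidin donor beads 1 h); normalized to vehicle (0%) and 1 μM DI-1548 (100%), IC50 from Hill fits.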

[3] = system: fetal hemoglobin gene HBG1; assay: HBG1 Nanostring Assay in CD34+ HSPC erythroid differentiation culture; type: cell-based, human; settings: for EC50: HBG1 induction, Day10 of erythroid differentiation; for Nanostring Ymax obs (%): relative to a control compound (C1)
Summary of the method: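 CD34+ HSPCs were dosed from day −2 (0.1% DMSO) through two-phase erythroid differentiation (EPO, transferrin, SCF, IL-3, insulin; IL-3 removed from day 7) at 37° C, 5% CO2. Day-10 lysates of 100K cells were hybridized at 67° C for 22 h for nCounter counting, normalized to ERCC and housekeeping controls. EC50 and Ymax were derived, with Ymax relative to a control compound.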

DCN1 protein, sequence (Q96GG9 whole entry): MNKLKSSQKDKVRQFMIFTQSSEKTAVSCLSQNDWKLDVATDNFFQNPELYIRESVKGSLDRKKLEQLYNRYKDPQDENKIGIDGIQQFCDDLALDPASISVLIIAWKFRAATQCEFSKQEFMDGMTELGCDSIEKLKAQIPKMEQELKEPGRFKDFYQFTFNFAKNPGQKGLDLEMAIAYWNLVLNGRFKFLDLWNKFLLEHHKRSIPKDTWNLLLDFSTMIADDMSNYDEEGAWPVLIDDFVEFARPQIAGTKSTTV

IC50 ([2]; Homo sapiens, TF-1, 3 h) [nM] | EC50 ([3]; Homo sapiens, 240 h) [nM] | Compound | % Adduct Formation [1] | IC50 [2] [nM] | EC50 [3] [nM] | Nanostring Ymax obs (%) [3]
– | – | CCN1C(=O)[C@@H](NC(=O)c2cccc(C(F)(F)F)c2)[C@@H](c2ccc(F)cc2)c2c([C@@H](C)NC#N)nn(-c3ccccc3)c21 (mixture of isomers) [Compound I-167] | +++ (MS Emax % adduct formation greater than 80.0 and less than or equal to 100.0) | ≤ 100 | 100 to 1000 | ++ (Nanostring Ymax greater than 50.0 and less than or equal to 100.0)
100 to 1000 | > 1000 | CCN1C(=O)[C@@H](NC(=O)c2cccc(C(F)(F)F)c2)[C@@H](c2ccc(F)cc2)c2c(NC(=O)[C@@H](C)Br)nn(-c3ccccc3)c21 (mixture of isomers) [Compound I-177] | + (MS Emax % adduct formation greater than or equal to 0.0 and less than or equal to 30.0) | – | – | ++ (Nanostring Ymax greater than 50.0 and less than or equal to 100.0)
> 1000 | > 1000 | CCN1C(=O)[C@@H](NC(=O)c2cccc(C(F)(F)F)c2)[C@@H](c2ccc(F)cc2)c2c([C@@H](C)NC(=O)CCl)nn(-c3ccccc3)c21 (mixture of isomers) [Compound I-190] | + (MS Emax % adduct formation greater than or equal to 0.0 and less than or equal to 30.0) | – | – | ++ (Nanostring Ymax greater than 50.0 and less than or equal to 100.0)
≤ 100 | ≤ 100 | C#CC(=O)N[C@H](C)c1nn(-c2ccccc2)c2c1[C@H](c1ccc(F)cc1)[C@H](NC(=O)c1cccc(C(F)(F)F)c1)C(=O)N2CC (mixture of isomers) [Compound I-236] | +++ (MS Emax % adduct formation greater than 80.0 and less than or equal to 100.0) | – | – | + (Nanostring Ymax greater than or equal to 0.0 and less than or equal to 50.0)
≤ 100 | 100 to 1000 | C=C(CN(C)C)C(=O)NCc1nn(-c2ccccc2)c2c1[C@H](c1ccc(F)cc1)[C@H](NC(=O)c1cccc(C(F)(F)F)c1)C(=O)N2CC (racemic) [Compound I-18] | +++ (MS Emax % adduct formation greater than 80.0 and less than or equal to 100.0) | – | – | + (Nanostring Ymax greater than or equal to 0.0 and less than or equal to 50.0)
≤ 100 | 100 to 1000 | CCN1C(=O)[C@@H](NC(=O)c2cccc(C(F)(F)F)c2)[C@@H](c2ccc(F)cc2)c2c(CNC(=O)/C(C#N)=C/C(C)(C)C)nn(-c3ccccc3)c21 (racemic) [Compound I-173] | +++ (MS Emax % adduct formation greater than 80.0 and less than or equal to 100.0) | – | – | ++ (Nanostring Ymax greater than 50.0 and less than or equal to 100.0)
≤ 100 | 100 to 1000 | C=C(CN(C)C)C(=O)N(C)Cc1nn(-c2ccccc2)c2c1[C@H](c1ccc(F)cc1)[C@H](NC(=O)c1cccc(C(F)(F)F)c1)C(=O)N2CC (racemic) [Compound I-178] | +++ (MS Emax % adduct formation greater than 80.0 and less than or equal to 100.0) | – | – | ++ (Nanostring Ymax greater than 50.0 and less than or equal to 100.0)
100 to 1000 | > 1000 | CCN1C(=O)[C@@H](NC(=O)c2cccc(C(F)(F)F)c2)[C@@H](c2ccc(F)cc2)c2c(CNC(=O)[C@H](C)Cl)nn(-c3ccccc3)c21 (racemic) [Compound I-179] | + (MS Emax % adduct formation greater than or equal to 0.0 and less than or equal to 30.0) | – | – | + (Nanostring Ymax greater than or equal to 0.0 and less than or equal to 50.0)
100 to 1000 | > 1000 | CCN1C(=O)[C@@H](NC(=O)c2cccc(C(F)(F)F)c2)[C@@H](c2ccc(F)cc2)c2c(CNC(=O)[C@H](C)Br)nn(-c3ccccc3)c21 (racemic) [Compound I-180] | + (MS Emax % adduct formation greater than or equal to 0.0 and less than or equal to 30.0) | – | – | + (Nanostring Ymax greater than or equal to 0.0 and less than or equal to 50.0)
≤ 100 | ≤ 100 | C#CC(=O)NCc1nn(-c2ccccc2)c2c1[C@H](c1ccc(F)cc1)[C@H](NC(=O)c1cccc(C(F)(F)F)c1)C(=O)N2CC (racemic) [Compound I-181] | + (MS Emax % adduct formation greater than or equal to 0.0 and less than or equal to 30.0) | – | – | + (Nanostring Ymax greater than or equal to 0.0 and less than or equal to 50.0)
100 to 1000 | – | CC#CC(=O)NCc1nn(-c2ccccc2)c2c1[C@H](c1ccc(F)cc1)[C@H](NC(=O)c1cccc(C(F)(F)F)c1)C(=O)N2CC (racemic) [Compound I-184] | + (MS Emax % adduct formation greater than or equal to 0.0 and less than or equal to 30.0) | – | – | ++ (Nanostring Ymax greater than 50.0 and less than or equal to 100.0)
100 to 1000 | – | C=C(CN1CCOCC1)C(=O)N(C)Cc1nn(-c2ccccc2)c2c1[C@H](c1ccc(F)cc1)[C@H](NC(=O)c1cccc(C(F)(F)F)c1)C(=O)N2CC (racemic) [Compound I-185] | + (MS Emax % adduct formation greater than or equal to 0.0 and less than or equal to 30.0) | – | – | ++ (Nanostring Ymax greater than 50.0 and less than or equal to 100.0)
100 to 1000 | 100 to 1000 | CCN1C(=O)[C@@H](NC(=O)c2cccc(C(F)(F)F)c2)[C@@H](c2ccc(F)cc2)c2c(Cn3sccc3=O)nn(-c3ccccc3)c21 (racemic) [Compound I-192, rac-N-((4R,5R)-7-ethyl-4-(4-fluorophenyl)-6-oxo-3-((3-oxoisothiazol-2(3H)-yl)methyl)-1-phenyl-4,5,6,7-tetrahydro-1H-pyrazolo[3,4-b]pyridine-5-yl)-3-(trifluoromethyl)benzamide] | ++ (MS Emax % adduct formation greater than 30.0 and less than or equal to 80.0) | – | – | + (Nanostring Ymax greater than or equal to 0.0 and less than or equal to 50.0)
100 to 1000 | ≤ 100 | C#CC(=O)N(C)Cc1nn(-c2ccccc2)c2c1[C@H](c1ccc(F)cc1)[C@H](NC(=O)c1cccc(C(F)(F)F)c1)C(=O)N2CC (racemic) [Compound I-201] | +++ (MS Emax % adduct formation greater than 80.0 and less than or equal to 100.0) | – | – | + (Nanostring Ymax greater than or equal to 0.0 and less than or equal to 50.0)
100 to 1000 | – | C=CC(=O)NCc1nn(-c2ccccc2)c2c1[C@H](c1ccc(F)cc1)[C@H](NC(=O)c1cccc(C(F)(F)F)c1)C(=O)N2CC (racemic) [Compound I-202] | + (MS Emax % adduct formation greater than or equal to 0.0 and less than or equal to 30.0) | – | – | + (Nanostring Ymax greater than or equal to 0.0 and less than or equal to 50.0)
100 to 1000 | 100 to 1000 | CCN1C(=O)[C@@H](NC(=O)c2cccc(C(F)(F)F)c2)[C@@H](c2ccc(F)cc2)c2c(CNC(=O)/C=C/CN3CCC3)nn(-c3ccccc3)c21 (racemic) [Compound I-203] | + (MS Emax % adduct formation greater than or equal to 0.0 and less than or equal to 30.0) | – | – | + (Nanostring Ymax greater than or equal to 0.0 and less than or equal to 50.0)
100 to 1000 | > 1000 | CCN1C(=O)[C@@H](NC(=O)c2cccc(C(F)(F)F)c2)[C@@H](c2ccc(F)cc2)c2c(CNC(=O)C3=CCC3)nn(-c3ccccc3)c21 (racemic) [Compound I-204] | + (MS Emax % adduct formation greater than or equal to 0.0 and less than or equal to 30.0) | – | – | + (Nanostring Ymax greater than or equal to 0.0 and less than or equal to 50.0)
100 to 1000 | > 1000 | C=C(C)C(=O)NCc1nn(-c2ccccc2)c2c1[C@H](c1ccc(F)cc1)[C@H](NC(=O)c1cccc(C(F)(F)F)c1)C(=O)N2CC (racemic) [Compound I-206] | + (MS Emax % adduct formation greater than or equal to 0.0 and less than or equal to 30.0) | – | – | + (Nanostring Ymax greater than or equal to 0.0 and less than or equal to 50.0)
≤ 100 | 100 to 1000 | CCN1C(=O)[C@@H](NC(=O)c2cccc(C(F)(F)F)c2)[C@@H](c2ccc(F)cc2)c2c(CN(C)C(=O)CCl)nn(-c3ccccc3)c21 (racemic) [Compound I-227] | ++ (MS Emax % adduct formation greater than 30.0 and less than or equal to 80.0) | – | – | ++ (Nanostring Ymax greater than 50.0 and less than or equal to 100.0)
≤ 100 | – | CCN1C(=O)[C@@H](NC(=O)c2cccc(C(F)(F)F)c2)[C@@H](c2ccc(F)cc2)c2c(CNC(=O)/C(C#N)=C/C(C)C)nn(-c3ccccc3)c21 (racemic) [Compound I-241] | +++ (MS Emax % adduct formation greater than 80.0 and less than or equal to 100.0) | – | – | + (Nanostring Ymax greater than or equal to 0.0 and less than or equal to 50.0)
